According to patent US10710978B2, “STK4 inhibitors for treatment of hematologic malignancies” (Dana-Farber Cancer Institute, Inc., priority 2015, dated 2020):
Like-named read-outs stand apart in the source and are kept apart here.

Assays:
Experiment in all cases: KiNativ assay
Format in all cases: binding
ATM = ATM (Homo sapiens (Human), UniProt Q13315); conditions: H929 live cell
In short: (§1)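 In duplicate, compounds at 10 μM were screened against kinases in H929 live cells using KiNativ, with MS as the detection method for IC50.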

MER, TYRO3 = conditions: H929 live cell; for % inhibition: 10 μM, range class
In short: as §1

PCTAIRE1 = PCTAIRE1 (Homo sapiens (Human), UniProt Q00536); conditions: H929 live cell
PCTAIRE1, sequence (Q00536 whole entry): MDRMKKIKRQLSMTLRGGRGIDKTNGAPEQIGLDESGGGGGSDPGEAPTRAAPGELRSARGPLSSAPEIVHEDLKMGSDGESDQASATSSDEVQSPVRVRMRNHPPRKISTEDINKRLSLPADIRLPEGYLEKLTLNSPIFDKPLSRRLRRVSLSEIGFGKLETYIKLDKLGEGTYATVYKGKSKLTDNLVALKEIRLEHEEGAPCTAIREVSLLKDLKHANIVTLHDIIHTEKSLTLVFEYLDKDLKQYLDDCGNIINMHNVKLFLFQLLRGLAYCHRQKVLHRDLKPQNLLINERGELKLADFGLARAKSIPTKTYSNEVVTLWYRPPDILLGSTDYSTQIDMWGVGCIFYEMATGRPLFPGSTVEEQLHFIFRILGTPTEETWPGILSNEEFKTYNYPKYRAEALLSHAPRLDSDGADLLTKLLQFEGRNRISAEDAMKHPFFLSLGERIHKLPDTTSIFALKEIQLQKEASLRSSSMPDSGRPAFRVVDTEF
In short: as §1

CLK3 = CLK3 (Homo sapiens (Human), UniProt P49761); conditions: H929 live cell
In short: as §1

CDK6 = CDK6 (Homo sapiens (Human), UniProt Q00534); conditions: H929 live cell
Description: Biochemical IC50s of the compounds of the present disclosure against various kinases were measured in a KiNativ assay. Compounds were screened in duplicate at 10 μM in H929 live cell. IC50 was measured via Mass spectroscopy (MS).

MAST1, MAST2 = conditions: H929 live cell; for % inhibition: 10 μM, range class
In short: as §1

CaMK4 = CaMK4 (Homo sapiens (Human), UniProt Q16566); conditions: H929 live cell
In short: as §1

[1] = tested on: ALK2, ALK4, ALK7, BMPR1B, TGFbR1; conditions: H929 live cell; for % inhibition: 10 μM, range class
In short: as §1

PCTAIRE1, PCTAIRE3 = conditions: H929 live cell; for % inhibition: 10 μM, range class
In short: as §1

PCTAIRE2, PCTAIRE3 = conditions: H929 live cell; for % inhibition: 10 μM, range class
In short: as §1

ULK3 = ULK3 (Homo sapiens (Human), UniProt Q6PHR2); conditions: H929 live cell
In short: as §1

PIP4K2B = PIP4K2B (Homo sapiens (Human), UniProt P78356); conditions: H929 live cell
In short: as §1

TAK1 = TAK1 (Homo sapiens (Human), UniProt O43318); conditions: H929 live cell
TAK1, sequence (O43318 whole entry): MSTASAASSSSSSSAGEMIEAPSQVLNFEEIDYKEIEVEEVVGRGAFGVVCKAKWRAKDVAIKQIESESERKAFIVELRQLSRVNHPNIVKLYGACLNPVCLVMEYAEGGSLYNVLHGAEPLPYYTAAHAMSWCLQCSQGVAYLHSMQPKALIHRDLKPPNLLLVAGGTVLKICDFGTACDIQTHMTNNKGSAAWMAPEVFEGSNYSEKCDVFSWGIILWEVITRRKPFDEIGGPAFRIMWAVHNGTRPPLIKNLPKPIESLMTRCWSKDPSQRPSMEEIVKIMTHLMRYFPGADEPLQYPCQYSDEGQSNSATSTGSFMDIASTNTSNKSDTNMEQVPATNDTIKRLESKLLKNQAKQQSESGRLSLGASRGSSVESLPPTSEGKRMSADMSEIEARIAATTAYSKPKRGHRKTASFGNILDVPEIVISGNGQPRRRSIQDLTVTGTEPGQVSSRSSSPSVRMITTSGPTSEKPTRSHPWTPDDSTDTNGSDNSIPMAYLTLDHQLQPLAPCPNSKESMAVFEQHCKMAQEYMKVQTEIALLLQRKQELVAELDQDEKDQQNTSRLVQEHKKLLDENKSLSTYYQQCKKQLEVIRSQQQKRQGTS
In short: as §1

GPRK6 = GPRK6 (Homo sapiens (Human), UniProt P43250); conditions: H929 live cell
In short: as §1

MAP3K3 = MAP3K3 (Homo sapiens (Human), UniProt Q99759); conditions: H929 live cell
In short: as §1

GAK = GAK (Homo sapiens (Human), UniProt O14976); conditions: H929 live cell
In short: as §1

Erk5 = Erk5 (Homo sapiens (Human), UniProt Q13164); conditions: H929 live cell
In short: as §1

PYK2 = PYK2 (Homo sapiens (Human), UniProt Q14289); conditions: H929 live cell
PYK2, sequence (Q14289 whole entry): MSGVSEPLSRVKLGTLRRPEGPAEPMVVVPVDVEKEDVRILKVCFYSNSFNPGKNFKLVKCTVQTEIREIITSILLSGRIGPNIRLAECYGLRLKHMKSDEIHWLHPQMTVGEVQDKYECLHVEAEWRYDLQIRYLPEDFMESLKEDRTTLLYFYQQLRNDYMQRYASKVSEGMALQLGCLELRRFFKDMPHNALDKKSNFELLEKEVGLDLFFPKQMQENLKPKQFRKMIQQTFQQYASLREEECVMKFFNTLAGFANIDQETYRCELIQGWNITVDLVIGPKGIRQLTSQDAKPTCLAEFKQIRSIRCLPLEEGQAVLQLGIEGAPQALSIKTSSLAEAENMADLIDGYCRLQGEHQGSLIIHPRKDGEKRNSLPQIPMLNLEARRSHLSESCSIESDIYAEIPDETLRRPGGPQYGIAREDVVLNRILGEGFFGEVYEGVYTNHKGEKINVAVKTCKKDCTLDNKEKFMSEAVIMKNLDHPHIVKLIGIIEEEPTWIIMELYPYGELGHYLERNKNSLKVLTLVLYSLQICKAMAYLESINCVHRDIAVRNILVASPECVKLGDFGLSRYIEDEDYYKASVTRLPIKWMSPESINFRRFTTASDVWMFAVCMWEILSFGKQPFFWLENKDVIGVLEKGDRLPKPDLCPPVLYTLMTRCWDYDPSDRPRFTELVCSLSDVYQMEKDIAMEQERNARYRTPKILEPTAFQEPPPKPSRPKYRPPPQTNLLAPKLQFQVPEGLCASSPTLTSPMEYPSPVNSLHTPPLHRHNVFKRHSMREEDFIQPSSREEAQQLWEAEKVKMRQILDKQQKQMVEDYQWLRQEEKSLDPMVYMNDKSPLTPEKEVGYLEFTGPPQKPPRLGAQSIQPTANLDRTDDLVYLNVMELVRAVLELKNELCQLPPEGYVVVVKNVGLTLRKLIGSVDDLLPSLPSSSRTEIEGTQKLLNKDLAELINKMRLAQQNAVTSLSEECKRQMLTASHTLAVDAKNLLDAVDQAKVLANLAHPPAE
In short: as §1

MAP3K6 = MAP3K6 (Homo sapiens (Human), UniProt O95382); conditions: H929 live cell
In short: as §1

LATS2 = LATS2 (Homo sapiens (Human), UniProt Q9NRM7); conditions: H929 live cell
LATS2, sequence (Q9NRM7 whole entry): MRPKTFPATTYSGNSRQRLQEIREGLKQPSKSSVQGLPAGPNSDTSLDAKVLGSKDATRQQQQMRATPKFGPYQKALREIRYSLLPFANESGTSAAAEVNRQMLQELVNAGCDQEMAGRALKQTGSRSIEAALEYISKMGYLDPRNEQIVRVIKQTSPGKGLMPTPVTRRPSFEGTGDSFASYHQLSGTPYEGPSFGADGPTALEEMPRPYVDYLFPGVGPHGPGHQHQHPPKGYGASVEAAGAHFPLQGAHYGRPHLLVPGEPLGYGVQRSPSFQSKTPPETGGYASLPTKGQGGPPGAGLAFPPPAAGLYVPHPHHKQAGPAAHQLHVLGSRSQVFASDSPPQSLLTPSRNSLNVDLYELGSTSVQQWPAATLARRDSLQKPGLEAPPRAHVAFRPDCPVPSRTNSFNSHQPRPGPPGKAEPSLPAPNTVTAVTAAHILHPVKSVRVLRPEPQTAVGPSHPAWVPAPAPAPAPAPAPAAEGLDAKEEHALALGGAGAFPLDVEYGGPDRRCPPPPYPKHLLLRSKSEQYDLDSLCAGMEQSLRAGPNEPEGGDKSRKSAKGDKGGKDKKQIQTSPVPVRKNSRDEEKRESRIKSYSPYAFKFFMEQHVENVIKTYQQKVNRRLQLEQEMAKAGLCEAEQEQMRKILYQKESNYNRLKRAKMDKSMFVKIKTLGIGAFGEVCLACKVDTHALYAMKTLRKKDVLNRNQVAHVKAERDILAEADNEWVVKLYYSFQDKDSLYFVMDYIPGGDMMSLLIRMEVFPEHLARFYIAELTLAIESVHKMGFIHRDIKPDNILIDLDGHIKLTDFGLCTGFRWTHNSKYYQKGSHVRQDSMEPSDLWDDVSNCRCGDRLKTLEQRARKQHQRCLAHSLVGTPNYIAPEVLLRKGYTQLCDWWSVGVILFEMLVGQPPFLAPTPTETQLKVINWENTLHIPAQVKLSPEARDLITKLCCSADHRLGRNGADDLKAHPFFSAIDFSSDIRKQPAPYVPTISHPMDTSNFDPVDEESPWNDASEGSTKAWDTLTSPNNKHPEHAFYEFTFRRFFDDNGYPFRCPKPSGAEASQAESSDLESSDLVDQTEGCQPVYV
In short: as §1

AGK = AGK (Homo sapiens (Human), UniProt Q53H12); conditions: H929 live cell
AGK, sequence (Q53H12 whole entry): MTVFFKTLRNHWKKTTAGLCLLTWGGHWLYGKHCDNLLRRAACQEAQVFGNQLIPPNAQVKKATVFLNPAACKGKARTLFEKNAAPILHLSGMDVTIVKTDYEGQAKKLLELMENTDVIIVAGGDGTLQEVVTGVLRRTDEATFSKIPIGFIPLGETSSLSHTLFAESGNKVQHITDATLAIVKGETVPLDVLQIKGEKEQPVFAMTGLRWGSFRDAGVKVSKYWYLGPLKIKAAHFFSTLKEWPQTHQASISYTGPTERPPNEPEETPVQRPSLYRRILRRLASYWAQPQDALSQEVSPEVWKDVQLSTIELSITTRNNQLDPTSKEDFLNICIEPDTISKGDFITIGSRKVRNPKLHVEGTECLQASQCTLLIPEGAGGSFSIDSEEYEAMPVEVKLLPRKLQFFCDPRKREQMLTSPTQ
In short: as §1

MELK = MELK (Homo sapiens (Human), UniProt Q14680); conditions: H929 live cell
In short: as §1

LZK = LZK (Homo sapiens (Human), UniProt O43283); conditions: H929 live cell
In short: as §1

MAP3K15 = MAP3K15 (Homo sapiens (Human), UniProt Q6ZN16); conditions: H929 live cell
MAP3K15, sequence (Q6ZN16 whole entry): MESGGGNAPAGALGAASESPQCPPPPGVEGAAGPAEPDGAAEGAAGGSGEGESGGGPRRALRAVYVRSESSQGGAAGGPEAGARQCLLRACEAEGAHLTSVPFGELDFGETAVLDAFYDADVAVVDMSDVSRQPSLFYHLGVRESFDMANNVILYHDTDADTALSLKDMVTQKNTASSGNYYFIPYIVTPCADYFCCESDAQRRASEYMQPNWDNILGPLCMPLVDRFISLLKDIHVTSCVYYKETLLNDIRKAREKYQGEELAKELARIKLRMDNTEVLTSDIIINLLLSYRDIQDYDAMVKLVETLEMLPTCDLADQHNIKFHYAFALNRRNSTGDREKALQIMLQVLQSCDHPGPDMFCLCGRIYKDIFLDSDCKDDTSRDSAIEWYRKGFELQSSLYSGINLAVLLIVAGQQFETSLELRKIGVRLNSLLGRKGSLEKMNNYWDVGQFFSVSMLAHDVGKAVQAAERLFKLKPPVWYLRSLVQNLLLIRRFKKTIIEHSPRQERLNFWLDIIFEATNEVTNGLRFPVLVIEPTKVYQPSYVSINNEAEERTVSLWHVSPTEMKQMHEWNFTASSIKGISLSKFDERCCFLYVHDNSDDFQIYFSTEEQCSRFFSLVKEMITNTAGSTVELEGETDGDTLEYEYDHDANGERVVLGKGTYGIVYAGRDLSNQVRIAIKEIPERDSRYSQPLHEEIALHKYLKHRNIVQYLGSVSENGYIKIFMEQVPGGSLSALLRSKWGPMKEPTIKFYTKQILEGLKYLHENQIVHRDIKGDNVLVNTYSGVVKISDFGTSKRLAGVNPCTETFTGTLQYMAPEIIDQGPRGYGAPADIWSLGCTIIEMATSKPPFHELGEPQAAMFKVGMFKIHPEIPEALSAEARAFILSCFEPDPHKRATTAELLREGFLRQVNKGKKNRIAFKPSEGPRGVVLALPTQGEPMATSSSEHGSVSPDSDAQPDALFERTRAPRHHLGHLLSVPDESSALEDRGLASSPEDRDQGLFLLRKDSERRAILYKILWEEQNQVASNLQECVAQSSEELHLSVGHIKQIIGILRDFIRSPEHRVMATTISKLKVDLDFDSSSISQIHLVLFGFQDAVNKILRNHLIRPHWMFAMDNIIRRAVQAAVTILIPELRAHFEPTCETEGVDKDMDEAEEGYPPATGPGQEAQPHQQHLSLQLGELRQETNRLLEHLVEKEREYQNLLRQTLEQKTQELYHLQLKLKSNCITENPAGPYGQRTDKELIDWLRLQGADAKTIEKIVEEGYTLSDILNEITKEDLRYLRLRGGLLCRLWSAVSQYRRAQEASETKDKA
In short: as §1

[2] = range class, read-out: % inhibition

SMILES: Nc1ncc(-c2ccc(NS(=O)(=O)C3CC3)cc2F)cc1-c1ccc2c(c1)CCNC2=O [Compound I-51, N-(4-(6-amino-5-(1-oxo-1,2,3,4-tetrahydroisoquinolin-6-yl)pyridin-3-yl)-3-fluorophenyl) cyclopropanesulfonamide]
- inhibition at 10 µM (ATM; [2]): 35 to 40%
- inhibition at 10 µM (ATM; read-out: inhibition (10 μM)): 40.3%
- % inhibition (MER, TYRO3): 0.0%
- inhibition (10 μM) (MER, TYRO3): −11.0%
- inhibition at 10 µM (PCTAIRE1; [2]): 0%
- inhibition at 10 µM (PCTAIRE1; read-out: inhibition (10 μM)): -0.2%
- inhibition at 10 µM (CLK3; [2]): 0%
- inhibition at 10 µM (CLK3; read-out: inhibition (10 μM)): 23.3%
- inhibition at 10 µM (CDK6; [2]): 0%
- inhibition at 10 µM (CDK6; read-out: inhibition (10 μM)): 10.7%
- % inhibition (MAST1, MAST2): 0.0%
- inhibition (10 μM) (MAST1, MAST2): −2.9%
- inhibition at 10 µM (CaMK4; [2]): 0%
- inhibition at 10 µM (CaMK4; read-out: inhibition (10 μM)): -61.2%
- % inhibition [1]: 75-90%
- inhibition (10 μM) [1]: 76.2%
- % inhibition (PCTAIRE1, PCTAIRE3): 0.0%
- inhibition (10 μM) (PCTAIRE1, PCTAIRE3): 29.4%
- % inhibition (PCTAIRE2, PCTAIRE3): 0.0%
- inhibition (10 μM) (PCTAIRE2, PCTAIRE3): 5.1%
- inhibition at 10 µM (ULK3; [2]): 0%
- inhibition at 10 µM (ULK3; read-out: inhibition (10 μM)): 1.8%
- inhibition at 10 µM (PIP4K2B; [2]): 0%
- inhibition at 10 µM (PIP4K2B; read-out: inhibition (10 μM)): -47.1%
- inhibition at 10 µM (TAK1; [2]): 0%
- inhibition at 10 µM (TAK1; read-out: inhibition (10 μM)): 30%
- inhibition at 10 µM (GPRK6; [2]): 0%
- inhibition at 10 µM (GPRK6; read-out: inhibition (10 μM)): 4.7%
- inhibition at 10 µM (MAP3K3; [2]): 0%
- inhibition at 10 µM (MAP3K3; read-out: inhibition (10 μM)): -29.3%
- inhibition at 10 µM (GAK; [2]): 50 to 75%
- inhibition at 10 µM (GAK; read-out: inhibition (10 μM)): 50.4%
- inhibition at 10 µM (Erk5; [2]): 0%
- inhibition at 10 µM (Erk5; read-out: inhibition (10 μM)): -13.2%
- inhibition at 10 µM (PYK2; [2]): 0%
- inhibition at 10 µM (PYK2; read-out: inhibition (10 μM)): 30.1%
- inhibition at 10 µM (MAP3K6; [2]): 0%
- inhibition at 10 µM (MAP3K6; read-out: inhibition (10 μM)): 24.4%
- inhibition at 10 µM (LATS2; [2]): 0%
- inhibition at 10 µM (LATS2; read-out: inhibition (10 μM)): 16.1%
- inhibition at 10 µM (AGK; [2]): 0%
- inhibition at 10 µM (AGK; read-out: inhibition (10 μM)): -12.1%
- inhibition at 10 µM (MELK; [2]): 35 to 40%
- inhibition at 10 µM (MELK; read-out: inhibition (10 μM)): 49.5%
- inhibition at 10 µM (LZK; [2]): 0%
- inhibition at 10 µM (LZK; read-out: inhibition (10 μM)): 11.3%
- inhibition at 10 µM (MAP3K15; [2]): 35 to 40%
- inhibition at 10 µM (MAP3K15; read-out: inhibition (10 μM)): 36.4%

SMILES: Nc1ncc(-c2ccc(NS(=O)(=O)C3CC3)cc2OC2CCCCC2)cc1-c1ccc2c(c1)CCNC2=O [Compound I-65, N-(4-(6-amino-5-(1-oxo-1,2,3,4-tetrahydroisoquinolin-6-yl)pyridin-3-yl)-3-(cyclohexyloxy)phenyl) cyclopropanesulfonamide]
- inhibition at 10 µM (ATM; [2]): 35 to 40%
- inhibition at 10 µM (ATM; read-out: inhibition (10 μM)): 48%
- % inhibition (MER, TYRO3): 0.0%
- inhibition (10 μM) (MER, TYRO3): 4.6%
- inhibition at 10 µM (PCTAIRE1; [2]): 0%
- inhibition at 10 µM (PCTAIRE1; read-out: inhibition (10 μM)): 9%
- inhibition at 10 µM (CLK3; [2]): 35 to 40%
- inhibition at 10 µM (CLK3; read-out: inhibition (10 μM)): 40%
- inhibition at 10 µM (CDK6; [2]): 0%
- inhibition at 10 µM (CDK6; read-out: inhibition (10 μM)): 0.5%
- % inhibition (MAST1, MAST2): 0.0%
- inhibition (10 μM) (MAST1, MAST2): 3.0%
- inhibition at 10 µM (CaMK4; [2]): 0%
- inhibition at 10 µM (CaMK4; read-out: inhibition (10 μM)): -21%
- % inhibition [1]: >90%
- inhibition (10 μM) [1]: 91.0%
- % inhibition (PCTAIRE1, PCTAIRE3): 0.0%
- inhibition (10 μM) (PCTAIRE1, PCTAIRE3): 2.3%
- % inhibition (PCTAIRE2, PCTAIRE3): 0.0%
- inhibition (10 μM) (PCTAIRE2, PCTAIRE3): 20.3%
- inhibition at 10 µM (ULK3; [2]): 0%
- inhibition at 10 µM (ULK3; read-out: inhibition (10 μM)): 30.6%
- inhibition at 10 µM (PIP4K2B; [2]): 0%
- inhibition at 10 µM (PIP4K2B; read-out: inhibition (10 μM)): -8.9%
- inhibition at 10 µM (TAK1; [2]): 35 to 40%
- inhibition at 10 µM (TAK1; read-out: inhibition (10 μM)): 35%
- inhibition at 10 µM (GPRK6; [2]): 0%
- inhibition at 10 µM (GPRK6; read-out: inhibition (10 μM)): 23.1%
- inhibition at 10 µM (MAP3K3; [2]): 0%
- inhibition at 10 µM (MAP3K3; read-out: inhibition (10 μM)): -28.3%
- inhibition at 10 µM (GAK; [2]): 0%
- inhibition at 10 µM (GAK; read-out: inhibition (10 μM)): 7.7%
- inhibition at 10 µM (Erk5; [2]): 0%
- inhibition at 10 µM (Erk5; read-out: inhibition (10 μM)): -6.5%
- inhibition at 10 µM (PYK2; [2]): 35 to 40%
- inhibition at 10 µM (PYK2; read-out: inhibition (10 μM)): 38.7%
- inhibition at 10 µM (MAP3K6; [2]): 0%
- inhibition at 10 µM (MAP3K6; read-out: inhibition (10 μM)): -7.2%
- inhibition at 10 µM (LATS2; [2]): 0%
- inhibition at 10 µM (LATS2; read-out: inhibition (10 μM)): -0.2%
- inhibition at 10 µM (AGK; [2]): 0%
- inhibition at 10 µM (AGK; read-out: inhibition (10 μM)): -21.2%
- inhibition at 10 µM (MELK; [2]): 50 to 75%
- inhibition at 10 µM (MELK; read-out: inhibition (10 μM)): 56.5%
- inhibition at 10 µM (LZK; [2]): 35 to 40%
- inhibition at 10 µM (LZK; read-out: inhibition (10 μM)): 43.1%
- inhibition at 10 µM (MAP3K15; [2]): 0%
- inhibition at 10 µM (MAP3K15; read-out: inhibition (10 μM)): 29.7%
